Laboratory results as given in patent publication US6703388B2, “Nitrogen-containing tricyclic compounds and drugs containing the same” (Eisai Co., Ltd., priority 1996, dated 2004).

Tested on: human basophils
Experiment: Inhibition of mediator (histamine, peptide leukotriene) liberation from human basophils stimulated with mite antigen
Assay type: cell-based
Conditions: histamine, enzyme immunoassay, read-out: IC50 (μM) in mediator liberation from human basophils: histamine
Method: 6 ml of 6% dextran (for separating leukocytes, having a high molecular weight) was added to 20 ml of heparinized blood. After stirring well, the resulting mixture was allowed to stand at 37° C. for 30 min and thus erythrocytes were precipitated. The upper layer was taken up and phosphate buffered saline (D-PBS) was added thereto followed by centrifugation at 185 g for 8 minutes to give a crude leukocyte fraction. These cells were subjected to hypotonic hematolysis and then suspended in D-PBS(+) containing 0.1%-BSA. The resulting suspension was used in the subsequent experiment as the leukocyte fraction containing basophils. 0.4 ml of this cell suspension was preliminarily heated to 37° C. for 5 min and then 0.05 ml of a specimen solution was added thereto followed by a pretreatment at 37° C. for 15 min. Next, 0.05 ml of a mite antigen solution was added thereto to induce an antigen-antibody reaction. After 10 min, the reaction was ceased by ice-cooling. Then the reaction mixture was centrifuged at 185 g for 10 min and histamine and peptide leukotrienes in the resulting supernatant were determined by using enzyme immunoassay kits. From the results of the assay, the activities of the acridone derivatives of inhibiting the liberation of histamine and peptide leukotriene were determined.

| SMILES | IC50 [µM] |
| --- | --- |
| Cc1ccc2c(c1C)N(CCCN(C)Cc1cccc(Cl)c1O)c1ccccc1[S+]2[O-] (stereo not drawn) [Example 167] | 10 |
| Cc1ccc2c(c1C)N(CCCN(C)Cc1ccccc1O)c1cc(C(F)(F)F)ccc1[S+]2[O-] (stereo not drawn) [Example 187] | 10 to 30 |

Same assay, conditions: peptide leukotriene, enzyme immunoassay, read-out: IC50 (μM) in mediator liberation from human basophils: leukotriene

| SMILES | IC50 [µM] |
| --- | --- |
| Cc1ccc2c(c1C)N(CCCN(C)Cc1cccc(Cl)c1O)c1ccccc1[S+]2[O-] (stereo not drawn) [Example 167] | 3 |
| Cc1ccc2c(c1C)N(CCCN(C)Cc1ccccc1O)c1cc(C(F)(F)F)ccc1[S+]2[O-] (stereo not drawn) [Example 187] | 3 to 10 |

Tested on: RBL-2H3 cells
Experiment: Inhibition of serotonin liberation from IgE-sensitized RBL-2H3 cells after antigen stimulation
Assay type: cell-based, rat
Conditions: Rattus norvegicus, RBL-2H3, read-out: IC50 (μM) in serotonin liberation from RBL-2H3 cells
Excerpt: IgE-sensitized RBL-2H3 cells (i.e., a cell line originating in rat cells) release and produce not only histamine and serotonin but also cytokines such as TNF α and prostaglandins which are inflammatory mediators after stimulation with IgE sepecific antibody. In this experimental system, inhibitory effects on various mediators release were examined by using serotonin as an indication.
The cells were beforehand labeled with [^3H]-labeled serotonin and, at the same time, sensitized with the IgE antibody. After incubating with the compounds of the present invention, the cells were stimulated with the specific antigen. Then the inhibitory activity of each compound was calculated from the amount of the [^3H]-labeled serotonin thus liberated into the medium and the amount of [^3H]-labeled serotonin liberated when no compound of the present invention was added.

| SMILES | IC50 [µM] |
| --- | --- |
| Cc1ccc2c(c1C)N(CCCNCc1cccc(C(=O)O)c1O)c1ccccc1[S+]2[O-] (stereo not drawn) [Example 31] | 0.5 |
| Cc1ccc2c(c1C)N(CCN1CCC(O)(c3ccccc3)CC1)c1ccccc1[S+]2[O-] (stereo not drawn) [Example 192] | 5 |
| Cc1ccc2c(c1C)N(CCN1CCC(O)(c3ccccc3)CC1)c1ccccc1S2(=O)=O [Example 199] | 10 |

Same assay, conditions: Rattus norvegicus; [3H]-serotonin release, IgE-sensitized RBL-2H3 cells, antigen stimulation; read-out: IC50 (μM) in serotonin liberation from RBL-2H3 cells

| SMILES | IC50 [µM] |
| --- | --- |
| Cc1ccc2c(c1C)N(CCCN)c1ccccc1S2 [Example 1, 1,2-Dimethyl-10-(3-aminopropyl)phenothiazine] | 5 |
| Cc1ccc2c(c1C)N(Cc1cccc(CN)n1)c1ccccc1S2 [Example 3] | 10 |
| Cc1ccc2c(c1C)N(CCCN(CC(=O)O)Cc1ccccc1)c1ccccc1S2 [Example 5] | 5 |
| Cc1ccc2c(c1C)N(Cc1cccc(CNCc3ccccc3)n1)c1ccccc1S2 [Example 6] | 10 |
| Cc1ccc2c(c1C)N(Cc1cccc(CNCc3ncc[nH]3)n1)c1ccccc1S2 [Example 7] | 8 |
| Cc1ccc2c(c1C)N(CCCN)c1cc(CCO)ccc1[S+]2[O-] (stereo not drawn) [Example 9] | < 1 |
| Cc1ccc2c(c1C)N(CCCN)c1cc(Br)ccc1[S+]2[O-] (stereo not drawn) [Example 10] | 3 |
| COc1ccc(O)c(CNCCCN2c3ccccc3[S+]([O-])c3ccc(C)c(C)c32)c1O (stereo not drawn) [Example 38] | 8 |
| Cc1ccc2c(c1C)N(CCCNCc1cc(Br)cc(F)c1O)c1ccccc1[S+]2[O-] (stereo not drawn) [Example 40] | 5 |
| Cc1ccc2c(c1C)N(CCCNCc1cc(Br)cc(Cl)c1O)c1ccccc1[S+]2[O-] (stereo not drawn) [Example 41] | 5 |
| Cc1ccc2c(c1C)N(CCCNCC1CC1)c1ccccc1[S+]2[O-] (stereo not drawn) [Example 43] | 4 |
| Cc1ccc2c(c1C)N(CCCNCc1ccccc1Cl)c1ccccc1[S+]2[O-] (stereo not drawn) [Example 52] | 3 |
| Cc1ccc2c(c1C)N(CCCNCc1ccccc1C(=O)O)c1ccccc1[S+]2[O-] (stereo not drawn) [Example 55] | 8 |
| Cc1ccc2c(c1C)N(CCCNCc1ccccc1OCC(=O)O)c1ccccc1[S+]2[O-] (stereo not drawn) [Example 56] | 3 |
| Cc1ccc2c(c1C)N(CCCNCc1cccc(-c3nnn[nH]3)c1)c1ccccc1[S+]2[O-] (stereo not drawn) [Example 57] | 2 |
| Cc1ccc2c(c1C)N(CCCNCc1ncc[nH]1)c1ccccc1[S+]2[O-] (stereo not drawn) [Example 63] | 3 |
| Cc1ccc2c(c1C)N(CCCNCc1nc3ccccc3s1)c1ccccc1[S+]2[O-] (stereo not drawn) [Example 68] | 4 |
| Cc1ccc2c(c1C)N(CCCNCc1ccccn1)c1ccccc1[S+]2[O-] (stereo not drawn) [Example 70] | 2 |
| Cc1cccc(CNCCCN2c3ccccc3[S+]([O-])c3ccc(C)c(C)c32)n1 (stereo not drawn) [Example 71] | 8 |
| Cc1ccc2c(c1C)N(CCCNCc1ncco1)c1ccccc1[S+]2[O-] (stereo not drawn) [Example 72] | 8 |
| Cc1ccc2c(c1C)N(CCCNCc1[nH]cnc1C)c1ccccc1[S+]2[O-] (stereo not drawn) [Example 74] | 2 |

| SMILES | IC50 [µM] |
| --- | --- |
| Cc1ccc2c(c1C)N(CCCNCc1nccnc1Cl)c1ccccc1[S+]2[O-] (stereo not drawn) [Example 75] | 6 |
| CCOC(=O)/C(C)=C/c1cc(OC)c(CNCCCN2c3ccccc3[S+]([O-])c3ccc(C)c(C)c32)s1 (stereo not drawn) [Example 76] | 3 |
| COc1ncc(CNCCCN2c3ccccc3[S+]([O-])c3ccc(C)c(C)c32)c(OC)n1 (stereo not drawn) [Example 78] | 4 |
| COc1cc(C(N)=O)sc1CNCCCN1c2ccccc2[S+]([O-])c2ccc(C)c(C)c21 (stereo not drawn) [Example 79] | 2 |
| Cc1ccc2c(c1C)N(CCCNCc1ccccc1)c1ccc(C#N)cc1[S+]2[O-] (stereo not drawn) [Example 88] | 1 |
| COc1ccsc1CNCCCN1c2ccc(C#N)cc2[S+]([O-])c2ccc(C)c(C)c21 (stereo not drawn) [Example 89] | 2 |
| COC(=O)c1cccc2c1[S+]([O-])c1ccc(C)c(C)c1N2CCCNCc1ccccc1 (stereo not drawn) [Example 91] | 5 |
| Cc1ccc2c(c1C)N(CCCNCc1ccc(Cl)cc1Cl)c1cc(CCO)ccc1[S+]2[O-] (stereo not drawn) [Example 93] | 3 |
| Cc1ccc2c(c1C)N(CCCNCc1ccc(F)cc1F)c1cc(CCO)ccc1[S+]2[O-] (stereo not drawn) [Example 95] | 3 |
| Cc1ccc2c(c1C)N(CCCNCc1ccccc1)c1cc(-c3nn[nH]n3)ccc1[S+]2[O-] (stereo not drawn) [Example 98] | 0.5 |
| COc1cc2c(c(C)c1C)N(CCCNCc1ccccc1)c1ccccc1[S+]2[O-] (stereo not drawn) [Example 99] | 5 |
| COc1ccsc1CNCCCN1c2ccccc2[S+]([O-])c2c(C)cc(C)c(C)c21 (stereo not drawn) [Example 101] | 5 |
| Cc1ccc2c(c1C)N(CCCN1CCOCC1)c1ccccc1[S+]2[O-] (stereo not drawn) [Example 103, 1,2-Dimethyl-10-[3-(4-morpholino)propyl]phenothiazine-5Oxide] | < 3 |
| Cc1ccc2c(c1C)N(CCCN1CCC(O)CC1)c1ccccc1[S+]2[O-] (stereo not drawn) [Example 106] | 2 |
| Cc1ccc2c(c1C)N(CCCN1CCC(N(C)C)CC1)c1ccccc1[S+]2[O-] (stereo not drawn) [Example 107] | 2 |
| Cc1ccc2c(c1C)N(CCCN(CC(=O)O)Cc1ccccc1)c1ccccc1[S+]2[O-] (stereo not drawn) [Example 109] | 3 |
| Cc1ccc2c(c1C)N(CCCN1CCN(Cc3ccccc3)C(C(=O)O)C1)c1ccccc1[S+]2[O-] (stereo not drawn) [Example 110] | 1 |
| Cc1ccc2c(c1C)N(CCCN1CCN(C(C(=O)O)c3ccccc3)CC1)c1ccccc1[S+]2[O-] (stereo not drawn) [Example 111] | 2 |
| Cc1ccc2c(c1C)N(CCCN1CCN(Cc3ccccn3)CC1)c1ccccc1[S+]2[O-] (stereo not drawn) [Example 112] | 1 |
| Cc1ccc2c(c1C)N(CCCNc1ccccc1O)c1ccccc1[S+]2[O-] (stereo not drawn) [Example 116] | 10 |
| Cc1ccc2c(c1C)N(CCCN1CCN(C(CO)c3ccccc3)CC1)c1ccccc1[S+]2[O-] (stereo not drawn) [Example 117] | 2 |

| SMILES | IC50 [µM] |
| --- | --- |
| Cc1ccc2c(c1C)N(CCCNc1nc[nH]n1)c1ccccc1[S+]2[O-] (stereo not drawn) [Example 118] | 10 |
| Cc1ccc2c(c1C)N(CCCn1cnc(N)n1)c1ccccc1[S+]2[O-] (stereo not drawn) [Example 119] | 6 |
| Cc1ccc2c(c1C)N(CCCNCc1nccs1)c1ccccc1[S+]2[O-] (stereo not drawn) [Example 120] | 3 |
| Cc1ccc2c(c1C)N(Cc1ccc(CN3CCC(C(=O)O)CC3)cc1)c1ccccc1[S+]2[O-] (stereo not drawn) [Example 121] | 1 |
| C#CCNCCCN1c2ccccc2[S+]([O-])c2ccc(C)c(C)c21 (stereo not drawn) [Example 126] | 3 |
| Cc1ccc2c(c1C)N(CCCNCC#N)c1ccccc1[S+]2[O-] (stereo not drawn) [Example 130] | 3 |
| Cc1ccc2c(c1C)N(CCCN(CC#N)CC#N)c1ccccc1[S+]2[O-] (stereo not drawn) [Example 131] | 3 |
| Cc1ccc2c(c1C)N(CCCNC(C(=O)O)c1ccccc1)c1ccccc1[S+]2[O-] (stereo not drawn) [Example 133] | 1 |
| Cc1ccc2c(c1C)N(CCCN(CC(=O)O)Cc1ccccc1O)c1ccccc1[S+]2[O-] (stereo not drawn) [Example 135] | 2 |
| Cc1ccc2c(c1C)N(CCNCc1cc(C)c(O)c(C)c1)c1ccccc1[S+]2[O-] (stereo not drawn) [Example 148] | 8 |
| COc1cc(CNCCN2c3ccccc3[S+]([O-])c3ccc(C)c(C)c32)cc(OC)c1O (stereo not drawn) [Example 149] | 8 |
| Cc1ccc2c(c1C)N(CCNCc1ccc(Cl)c(O)c1Cl)c1ccccc1[S+]2[O-] (stereo not drawn) [Example 153] | 6 |
| COCOc1cccnc1CNCCN1c2ccccc2[S+]([O-])c2ccc(C)c(C)c21 (stereo not drawn) [Example 160] | 2 |
| Cc1ccc2c(c1C)N(CCCN(C)Cc1cc(Cl)cc(Cl)c1O)c1ccccc1[S+]2[O-] (stereo not drawn) [Example 172] | 3 |
| Cc1ccc2c(c1C)N(CCCN(C)Cc1ccccc1O)c1cc(Cl)ccc1[S+]2[O-] (stereo not drawn) [Example 186] | 10 |
| Cc1ccc2c(c1C)N(CCN1CCN(Cc3ccccc3)CC1)c1ccccc1[S+]2[O-] (stereo not drawn) [Example 191, 1,2-Dimethyl-10-[2-(4-benzylpiperazin-1-yl)ethyl]-phenothiazine-5-oxide] | 3 |
| Cc1ccc2c(c1C)N(CCNc1ccccc1O)c1ccccc1[S+]2[O-] (stereo not drawn) [Example 194] | 10 |
| Cc1ccc2c(c1C)N(CCCN)c1cc(Br)ccc1S2(=O)=O [Example 197] | 8 |
| C=C1c2ccccc2N(CCCNCc2ccccc2)c2c1ccc(C)c2C [Example 206, 3,4-Dimethyl-9-methylene-10-(3-benzylaminopropyl)acridan] | 15 |
| CCC/C=C1/c2ccccc2N(CCCNCc2ccccc2)c2c1ccc(C)c2C [Example 207] | 15 |
